The values that follow come from article PMC12741935 (Alzheimer's & Dementia, 2025).

Read-outs that look alike come from different tables or passages of the source.

This data set is described as follows: Plasma and brain NVS-PAK1-1 concentrations in 5xFAD mice. Particulars: for concentration at 4 h: mouse, po, 100 mg/kg, 4 h after final dose. The class given is in vivo. As for the experimental part: Serial blood was collected from n = 3 per treatment group at 0.5, 1, 2, and 4 hours post dose; with terminal blood and brain collected at 4 hours post dose. A staggered cohort of n = 3 per treatment group were assigned to serial blood collections at 0.5, 1, 2, and 8 hours post dose with terminal blood and brain collected at 4 and 24 hours post dose. Informed by exposure data from the initial PK/PD study, a subsequent chronic PK/PD study was designed to evaluate twice daily treatment of 100 mg/kg (PO) in female and male 5xFAD mice compared to age‐ and sex‐matched vehicle‐treated 5xFAD and vehicle‐treated WT littermate controls (Table S2 in supporting information). Terminal blood and brain was collected at 4 hours after the final dose. […] All in vivo target engagement and PK/PD studies were conducted under blinded conditions for age, genotype, and treatment, and the blind was maintained until after analyses were conducted.
Drug concentrations were prepared immediately before dosing each day. The dose volume was delivered at 10 mL/kg based on each subject's daily weight collected just prior to the morning dose and administered via PO. For the chronic PD study, twice daily dosing (BID) was conducted between 7:00 and 9:00 am each morning and 3:00 to 5:00 pm each evening with the same day's formulation stored at 4°C between dosing intervals.
For serial blood sampling, 50 µL of blood was collected via the tail tip route into heparin‐coated glass capillary tubes (Drummond scientific # 1‐000‐7500‐C/5) in non‐anesthetized mice. For all terminal timepoints, tissue collection was conducted at 4 or 24 hours post dose for acute studies (Tables S1–S2) and 4 hours after the final dose administrated for chronic studies. Mice were anesthetized with isoflurane to the surgical plane of anesthesia. After decapitation, trunk blood was collected into heparin‐coated tubes for terminal PK analysis with the remaining trunk blood decanted into EDTA‐coated tubes for PD analysis. Blood was kept on ice until centrifugation (typically 20–60 minutes post collection), then centrifuged at 19745 g for 10 minutes at 4°C for PK samples and 20 minutes for PD samples (e.g., plasma Aβ40, Aβ42, neurofilament light chain [NfL]), followed by storage at −80°C until analysis. The brain was quickly removed from the skull, briefly rinsed in cold PBS, and divided sagittally at the midline into left and right hemispheres. The left hemisphere without cerebellum was quickly chopped and mixed into three equally aliquoted mixed parts then placed into three cold cryotubes. Cryotubes were immediately snap frozen on dry ice and stored at −80°C until analysis. The right hemisphere was maintained intact and immediately placed on dry ice and stored at −80°C until shipped to Stanford University for Golgi staining and morphological analyses.
For plasma samples, three volumes of acetonitrile containing internal standard was added to one volume of plasma, and centrifuged at 3000 g for 10 minute; then, the supernatant was removed and analyzed by LC‐MS/MS. Calibration standards and quality controls were prepared from a 1 mg/mL stock solution and subsequently a series of working solutions in methanol:water (1:1, v/v) that are spiked into blank plasma to yield a series of calibration standard samples in the range of 1 ng/mL to 10 µg/mL and QC samples at three concentration levels (low, middle, and high). All plasma samples were treated identically to the calibration standards and QC samples. For analysis of brain, one third of the left mixed‐chopped hemisphere was homogenized in three volumes of PBS buffer (pH 7.4; v/w = 3/1). Subsequently, three volumes of acetonitrile‐containing internal standard was added to one volume of each tissue homogenate, and the mixture was vortexed, centrifuged at 3000 g for 10 minutes, and supernatants were used for LC‐MS/MS.

As for `CC(C)NC(=O)N1CC[C@H](NC2=Nc3cc(F)ccc3N(CC(F)F)c3ccc(Cl)cc32)C1` [NVS‐PAK1‐1, (S)‐3‐([2‐chloro‐5‐(2,2‐difluoroethyl)‐8‐fluoro‐5H‐dibenzo[b,e][1,4]diazepin‐11‐yl]amino)‐N‐isopropylpyrrolidine‐1‐carboxamide], the concentration at 4 h runs as follows: (female, 5xFAD, brain, aged 5xFAD females, 100 mg/kg BID PO 31 days, read-out: brain concentration) 58.3 ± 26.1 ng/g; (female, 5xFAD, brain, young 5xFAD females, 100 mg/kg BID PO 12 weeks, read-out: mean brain concentration) 44.9 ± 14.1 ng/g; (female, 5xFAD, plasma, aged 5xFAD females, 100 mg/kg BID PO 31 days, read-out: plasma concentration) 354 ± 138 ng/mL; (female, 5xFAD, plasma, young 5xFAD females, 100 mg/kg BID PO 12 weeks, read-out: average plasma concentration) 324 ± 104 ng/mL; (male, 5xFAD, brain, aged 5xFAD males, 100 mg/kg BID PO 31 days, read-out: brain concentration) 49.1 ± 17.6 ng/g; (male, 5xFAD, brain, young 5xFAD males, 100 mg/kg BID PO 12 weeks, read-out: mean brain concentration) 98.5 ± 34.4 ng/g. For the same compound, the concentration at 4 h reads like this: (male, 5xFAD, plasma, aged 5xFAD males, 100 mg/kg BID PO 31 days, read-out: plasma concentration) 140 ± 27.9 ng/mL; (male, 5xFAD, plasma, young 5xFAD males, 100 mg/kg BID PO 12 weeks, read-out: average plasma concentration) 309 ± 104 ng/mL. For the same compound, the “levels in brain or plasma” value (single PO dose 100 mg/kg, 24 hours post administration, 5xFAD) is “lack of detectable levels”. For the same compound, the brain concentration entry (single PO dose 10 or 50 mg/kg, 24 hours post dose, aged 5xFAD) is recorded as “BLOQ”.
